Consider 1 compound from patent US9999620B2, “CaMKK-β as a target for treating cancer” (Duke University, priority 2010, dated 2018).

Type in all cases: cell-based, human
Assay [1] concerns CaMKI phosphorylation (T177) by CaMKKβ. Kind of assay: Western blot of phospho-CaMKI (readout of CaMKKβ activity). Particulars: for androgen-increased phosphorylation of CaMKI (T177): STO-609 pretreatment. Background: Immunoblotting shows a protein as a band on a membrane.
Description: A, LNCaP cells were pretreated for 1 h with vehicle, 10 or 30 mM STO-609 prior to overnight treatment with vehicle, 100 pM or 10 nM R1881. Cell lysates were then subjected to western blot analysis and subsequent densitometry (right). Phospho-CaMKI (p-CaMKI) levels were normalized to total CaMKI. Results are expressed as fold induction/phosphorylation over double vehicle-treated cells+SE (n=2). *, P<0.05 indicates significant changes from vehicle-treated cells. ^#, P<0.05 indicates significant changes from vehicle (no STO-609)-treated cells.
A, LNCaP cells were pretreated for 1 h+/−30 mM STO-609 prior to overnight treatment+/−10 nM R1881. Cell lysates were then subjected to western blot analysis and subsequent densitometry (right). CaMKKβ levels were normalized to GAPDH. Phospho-CaMKI (p-CaMKI) levels were normalized to total CaMKI. Phospho-AMPK (p-AMPK) levels were normalized to total AMPK. Results are expressed as fold induction/phosphorylation over double vehicle-treated cells+SE (n=3). *, significant changes from vehicle-treated cells.
The subject of a further assay is VCaP cells. Nature of the assay: Cell proliferation assay (FluoReporter Blue DNA content). Particulars: +/-1 nM R1881 and +/-30 mM STO-609 on d 3, d 5, d 7, read on d 10. From the text:
FIG. 6. CaMKKβ activity in androgen-mediated cell migration in prostate cancer cells. […] Cell lysates were then subjected to western blot analysis and subsequent densitometry (right). Phospho-[…]) levels were normalized to total CaMKI. Results are expressed as fold induction/phosphorylation over double vehicle-treated cells+SE (n=2). *, P<0.05 indicates significant changes from vehicle-treated cells. ^#, P<0.05 indicates significant changes from vehicle (no STO-609)-treated cells. B, VCaP cells were plated in 96-well plates and grown for 3 d. […] On d 10, cells were lysed and the relative number of cells was measured with the fluorescent DNA binding dye FluoReporter Blue. Each sample was performed in triplicate, and results from a representative experiment are shown. […] Cells were then dissociated and reseeded into the top chamber for a Boyden dual chamber migration assay. […] After 16 h, migrated cells were fixed, stained with crystal violet and counted in three different microscopic fields and added together. […] Proliferation assays were performed as previously described (12) by measuring the cellular DNA content using the FluoReporter Blue Fluorometric double-stranded DNA Quantitation Kit (Invitrogen) as per the manufacturer's protocol.

In assay [2] the test system is AMPK phosphorylation (T172) by CaMKKβ. Kind of assay: Western blot of phospho-AMPK. The conditions noted are these: STO-609 pretreatment.
Description: A, LNCaP cells were pretreated for 1 h+/−30 mM STO-609 prior to overnight treatment+/−10 nM R1881. Cell lysates were then subjected to western blot analysis and subsequent densitometry (right). CaMKKβ levels were normalized to GAPDH. Phospho-CaMKI (p-CaMKI) levels were normalized to total CaMKI. Phospho-AMPK (p-AMPK) levels were normalized to total AMPK. Results are expressed as fold induction/phosphorylation over double vehicle-treated cells+SE (n=3). *, significant changes from vehicle-treated cells. B, LNCaP cells stably expressing either GAL4 or CaMKKβ □were treated overnight+/−10 nM R1881. Cell lysates were then subjected as in A to western blot analysis and densitometry (right). Results are expressed as fold induction/phosphorylation over LNCaP-GAL4 vehicle-treated cells+SE (n=3). *, significant changes from LNCaP-GAL4 vehicle-treated cells. […]
A, VCaP cells were treated for 24 h+/−10 nM R1881. […] Results are expressed as fold induction/phosphorylation over vehicle-treated cells+SE (n=2). *, P<0.05 indicates significant changes from vehicle-treated cells. […]
Western blot analysis. […] For each sample, protein levels were determined by densitometry using the ImageJ software (NIH) and normalizing to indicated controls.
The next assay has as its system LNCaP cells. Kind of assay: Cell proliferation assay (FluoReporter Blue DNA content). The conditions noted are these: +/-1 nM R1881 and +/-30 mM STO-609 on d 3, d 5, d 7, read on d 10. On the procedure: FIG. 7. CaMKKβ activity in the androgen-mediated migration and invasion of prostate cancer cells. A, LNCaP cells were plated in 96-well plates and grown for 3 d. […] On d 10, cells were lysed and the relative number of cells was measured with the fluorescent DNA binding dye FluoReporter Blue. Each sample was performed in triplicate, and results from a representative experiment are shown. […] Cells were then dissociated and reseeded into the top chamber for a Boyden migration or Matrigel extracellular matrix invasion assay. Fresh medium with the corresponding treatments was added to the top and bottom chambers while either no chemoattractant or 5% FBS (serum) was added to the bottom chamber. After 16 h, migrated cells were fixed, stained and counted in three different microscopic fields and added together. […] C top, LNCaP cells were transfected with indicated siRNAs. […] D right, LNCaP cells stably expressing either GAL4 (control) or CaMKKβ were subjected to a migration assay as described in B using +/−5% FBS as chemoattractant. The results are expressed as mean+SE (n=3). *, significant changes from LNCaP-GAL4 cells. D left, western blot confirming CaMKKβ […]expression. […] Proliferation assays were performed as previously described (12) by measuring the cellular DNA content using the FluoReporter Blue Fluorometric double-stranded DNA Quantitation Kit (Invitrogen) as per the manufacturer's protocol.

`O=C(O)c1ccc2c3c1cccc3c(=O)n1c3ccccc3nc21` [STO-609]: the “CaMKKβ activity (phospho-CaMKI levels)” value in assay [1] (LNCaP, 1 h pretreatment with 10 or 30 mM STO-609, then overnight 100 pM or 10 nM R1881) is “suppressed CaMKKβ activity”. Further, the “androgen-increased phosphorylation of CaMKI (T177)” value is on record as “reversed” in assay [1] (LNCaP, 10 nM R1881) and “reversed” in assay [1] (VCaP). The “effect on cell number (androgen-mediated cellular growth)” value in the assay on VCaP cells and in the assay with LNCaP cells was “no significant effect” in each case. For the same compound, the “androgen-increased phosphorylation of AMPK (T172)” value is recorded as “reversed” in assay [2] (LNCaP, 10 nM R1881) and “reversed” in assay [2] (VCaP).
